SMILES strings stand for the structures. “And” between values parts separate entries of the source, which are not always exact repeats. Equal values may be shown once.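 Following 48 hours of exposure in 96-well plates, responses at five concentrations were used to interpolate endpoints linearly. Definition used: TGI = concentration required for complete inhibition of growth.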 Where a SMILES comes first, the peptide text is derived from it. The star is where a group is joined. Cbz = O=C(OCc1ccccc1)*

What all share (assay): DTP human tumour cell line panel, 48 h
In experiment [1] the test system is A498 renal.
In experiment [2] the test system is TK-10 renal.
The test system of experiment [3] is T-47D breast.
For experiment [4], the system named is KM12 colon.
For experiment [5], the system named is SF-539 CNS.
The subject of experiment [6] is SR leukemia.
The test system of experiment [7] is OVCAR-8 ovarian.
Experiment [8] concerns OVCAR-3 ovarian.
For experiment [9], the system named is SNB-75 CNS.
Experiment [10] deals with MALME-3M melanoma.
Experiment [11] relates to HOP-92 NSCLC.

As usually defined, the TGI is the concentration at which net growth stops. As to `COCCn1cnc2c(Cl)nc(Nc3ccccc3)nc21`, the TGI in [1], in experiment [2], in [3], in experiment [4], in experiment [5] and in [6] was more than 100 µM each time. For the same molecule, the concentration for total growth inhibition (TGI) is 54.9 µM in [7], 34.1 µM in experiment [8] and more than 100 µM in experiment [9].
For the molecule `CCC1CC(O)c2c(O)c3c(c(O)c2C1O)C(=O)c1cccc(O)c1C3=O` (centres undefined) (tested in a mixture with another compound), the TGI in experiment [1] is 0.03 µM; in experiment [10], 0.0547 µM; in experiment [3] it was 0.18 µM and 0.0352 µM; in experiment [4], 0.147 µM and 0.0175 µM; in experiment [5], 0.0957 µM and 0.0893 µM; in experiment [6], 0.0605 µM and 0.0406 µM. The concentration for total growth inhibition (TGI) in experiment [7] is 0.181 µM and 1.19 µM; in experiment [8], 0.0721 µM and 0.0312 µM; in [9], 0.049 µM and 0.0426 µM.
Consider `CCOc1cc(NC(C)=O)ccc1C(=O)NNS(=O)(=O)c1ccc(NC(C)=O)cc1`, for which the TGI in experiment [1], in experiment [10], in [3], in experiment [11], in experiment [4] and in experiment [5] was more than 100 µM each time. The TGI in experiment [6], in experiment [7], in experiment [8] and in experiment [9] was more than 100 µM throughout.
Consider `Cc1ccc2c(c1)CC1(Cc3cccc(C)c3C1=O)C2=O` (centres undefined), for which the TGI in experiment [1] is more than 100 µM; in [10] it was more than 100 µM; in [2], more than 100 µM; in experiment [3], more than 10 µM; in experiment [11] it was more than 100 µM; in [5], more than 100 µM. Besides, the concentration for total growth inhibition (TGI) in experiment [6], in [7], in experiment [8] and in experiment [9] was more than 100 µM each time.
Turning to `c1ccc2c3[nH]c(c2c1)=Nc1ccc(cc1)-c1nc2ccc(cc2o1)N=c1[nH]c(c2ccccc12)=Nc1ccc2nc(oc2c1)-c1ccc(cc1)N=3`, the TGI in experiment [1], in experiment [2], in experiment [3], in experiment [11], in experiment [4] and in experiment [5] was more than 100 µM each time. The TGI was 71.6 µM in experiment [6], more than 100 µM in experiment [7], more than 100 µM in experiment [8] and more than 100 µM in experiment [9].
For `C/C=C\C(CC(=O)NCC(=O)c1c[nH]c2ccccc12)CC(=O)OC` (centres undefined), the TGI in experiment [1], in [10], in [2], in [3], in experiment [11] and in experiment [4] was more than 100 µM in each case. In addition, the concentration for total growth inhibition (TGI) in experiment [6], in experiment [7], in [8] and in experiment [9] was more than 100 µM each time.
`NCCCN(CCCN)CCc1cn(C(=O)c2ccccc2)cn1`: the total growth inhibition concentration (TGI) came out at 33.8 µM in experiment [10]; 20.6 µM in experiment [2]; 16.8 µM in experiment [3]; 13.2 µM in experiment [11]; 22.2 µM in experiment [4]; 35.3 µM in experiment [5]. In addition, the concentration for total growth inhibition (TGI) in experiment [6] was found to be 13.9 µM; in [7], 56.3 µM; in experiment [8], 7.75 µM; in experiment [9], 17.7 µM.
Regarding `CCOP(=O)(OCC)/C(C#N)=C/c1ccc(-c2cc(C(F)(F)F)cc(C(F)(F)F)c2)o1`, the total growth inhibition concentration (TGI) in [1] turned out to be 24.8 µM; in experiment [2], 35.5 µM; in experiment [3] it was 40 µM; in experiment [11] it was 20.7 µM; in [5], 35.3 µM; in experiment [6], 26.8 µM. Besides, the TGI in experiment [7] amounted to 32 µM; in experiment [8] it was 21.6 µM; in experiment [9], 27.9 µM.
Consider `CCCCC1Cc2cc(O)ccc2-c2nc3cc(O)ccc3n21` (centres undefined) (tested in a mixture with another compound), for which the concentration for total growth inhibition (TGI) in [10] was 57.8 µM; in experiment [2], 43.3 µM; in experiment [3], more than 100 µM; in [11], 30.5 µM; in [4], 75.1 µM; in [5], 28.5 µM. Moreover, the total growth inhibition concentration (TGI) in experiment [6] stood at 34 µM; in [7], 68.8 µM; in [8], 77.7 µM.
For the molecule `O=C1OCC2OC(=O)c3cc(O)c(O)c(O)c3-c3c(O)c(O)c(O)c4c3C(=O)OC(C2OC(=O)c2cc(O)c(O)c(O)c2-c2c1cc(O)c(O)c2O)C1OC(=O)C2C4=C(O)C(=O)C23Oc2cc(O)c4c(c2[C@H]13)O[C@H](c1ccc(O)c(O)c1)[C@@H](O)C4` (some centres undefined), the TGI was more than 100 µM in [1]; 72.2 µM in experiment [10]; 74.8 µM in experiment [3]; more than 100 µM in experiment [11]; more than 100 µM in [4]; more than 100 µM in experiment [6]. In addition, the values for the TGI in experiment [7], in experiment [8] and in [9] were 58.5 µM, 83.4 µM and 76 µM, respectively.
`CCOC(=O)C(NC(=O)c1ccccc1)(N1CCN(c2cc3c(cc2F)c(=O)c(C(=O)O)cn3C2CC2)CC1)C(F)(F)F` (centres undefined): the TGI in experiment [1] was determined as 72 µM; in experiment [10], 39.3 µM; in experiment [3] it was 46.1 µM; in [11], 38 µM; in experiment [4], 31.7 µM; in experiment [5] it was 30.9 µM. Further, the TGI in experiment [6] was 45.2 µM; in [7] it was more than 100 µM; in experiment [8], 48.6 µM; in [9], 69.9 µM.
`COc1ccc(/C(Cl)=C(\C#N)c2ccc(OC)c(OC)c2)cc1OC`: the concentration for total growth inhibition (TGI) in experiment [1], in experiment [2], in [3], in experiment [11], in [5] and in [6] was more than 100 µM each time. Also, the TGI in [8] is more than 100 µM.
As for `CC(=O)OCC1OC(n2c(C)c(N=Nc3ccc(Cl)cc3)c(C)c(C#N)c2=S)C(OC(C)=O)C(OC(C)=O)C1OC(C)=O` (centres undefined), the concentration for total growth inhibition (TGI) in experiment [10] was more than 100 µM; in experiment [2] it was more than 100 µM; in experiment [3], more than 100 µM; in experiment [11] it was 20.2 µM; in experiment [4] it was more than 100 µM; in experiment [5], more than 100 µM. Moreover, the TGI was more than 100 µM in [6], more than 100 µM in [8] and 49.1 µM in experiment [9].
On to `CN1CCN(/C(N)=C(\C#N)C(=O)Nc2ccc(Cl)cc2)CC1`, for which the TGI in experiment [1] was more than 100 µM; in experiment [3] it was more than 100 µM; in experiment [11] it was more than 100 µM; in [4], more than 100 µM; in experiment [5] it was more than 100 µM; in experiment [6] it was 95.3 µM. Further, the TGI in [7], in experiment [8] and in experiment [9] was more than 100 µM each time.
With `CN1CCc2c(sc3[nH]c(=S)[nH]c(=S)c23)C1`, the TGI in experiment [10], in experiment [2], in [3], in experiment [11], in [4] and in experiment [5] was more than 100 µM each time. The TGI in experiment [6], in [7], in experiment [8] and in experiment [9] was more than 100 µM throughout.
Regarding `O=C1CCSCCC(=O)Nc2ccccc2N1`, the TGI in experiment [1], in experiment [10], in [2], in experiment [3], in experiment [11] and in experiment [4] was more than 100 µM throughout. Besides, the TGI in experiment [5], in experiment [6], in [7] and in [8] was more than 100 µM in each case.
Turning to `O=c1[nH]nc(Cc2ccc(Cl)cc2)n1/N=C/c1cccs1`, the TGI was more than 100 µM in [1]; more than 100 µM in experiment [10]; more than 100 µM in [3]; 64.2 µM in experiment [11]; more than 100 µM in [4]; more than 100 µM in [5]. Also, the TGI in [6] was more than 100 µM; in experiment [7], more than 100 µM; in [8], more than 100 µM; in experiment [9] it was 49.9 µM.
Regarding `Cc1ccc(S(=O)(=O)C2=C(C(C)C)N=NC2(C)C)cc1`, the TGI was more than 100 µM in [1]; more than 100 µM in experiment [2]; more than 100 µM in experiment [3]; 69.6 µM in experiment [11]; more than 100 µM in [4]; more than 100 µM in experiment [5]. Further, the TGI in experiment [6], in experiment [7], in experiment [8] and in experiment [9] was more than 100 µM throughout.
`C=C1CCCCCCCCC/C=C/1SCCCSC`: the total growth inhibition concentration (TGI) in experiment [1], in [10], in experiment [2], in experiment [3], in experiment [11] and in [4] was more than 100 µM in each case. Besides, the TGI in experiment [5], in experiment [6], in [7] and in experiment [8] was more than 100 µM throughout.
`COc1cc2nc(-c3cccs3)nc(Cl)c2cc1OC`: the TGI in [1], in experiment [10], in experiment [2], in experiment [3], in [4] and in experiment [5] was more than 100 µM in each case. In addition, the concentration for total growth inhibition (TGI) was 34.8 µM in [6], more than 100 µM in experiment [7], more than 100 µM in [8] and more than 100 µM in experiment [9].
As for `O=P1(Cc2ccccc2)N(Cc2ccccc2)[C@@H]2CCCC[C@H]2N1Cc1ccccc1`, the total growth inhibition concentration (TGI) in [10] is 32.4 µM; in [2], 26.7 µM; in experiment [3] it was 24.3 µM; in experiment [4], 22.4 µM; in experiment [5], 33.8 µM; in [6] it was 8.06 µM. In addition, the TGI in experiment [7] stood at 23.8 µM; in experiment [8] it was 20.9 µM; in experiment [9], 21.1 µM.
In the case of `COC(=O)N[C@H](C(=O)NC(OCc1ccccc1)C1COC(C)(C)O1)C(C)O[Si](C)(C)C(C)(C)C` (some centres undefined), the TGI in experiment [1], in [10], in experiment [2], in experiment [3], in experiment [11] and in [6] was more than 100 µM throughout. Also, the TGI in experiment [7] and in experiment [9] was more than 100 µM throughout.
Consider `NC1(CCNC(=O)c2ccccc2)CCN(C(=O)c2ccccc2)CC1`, for which the TGI in experiment [10], in experiment [2], in experiment [3], in experiment [11], in [4] and in [5] was more than 100 µM each time. Moreover, the concentration for total growth inhibition (TGI) in experiment [6], in experiment [7] and in experiment [9] was more than 100 µM in each case.
In the case of `CC(NC(=O)Cc1ccccc1)NC(=O)C(C)C(=O)NCc1ccccc1` (centres undefined), the TGI is more than 100 µM in experiment [10]; more than 100 µM in [2]; more than 100 µM in experiment [3]; 88.8 µM in experiment [11]; more than 100 µM in [4]; more than 100 µM in experiment [5]. Further, the TGI in experiment [6], in [7] and in experiment [9] was more than 100 µM each time.
With `CCOC(=O)CCC(NC(=O)OCc1ccccc1)C(=O)NC(CCC(=O)OCC)C(=O)OCC` (centres undefined) (Cbz-Glu(OEt)-Glu(OEt)-OEt; configuration not given here), the TGI in [1], in experiment [10], in experiment [3], in [11], in [4] and in [5] was more than 100 µM throughout. The TGI in experiment [6], in experiment [7], in experiment [8] and in experiment [9] was more than 100 µM each time.
For `COc1cccc(CC(=O)N2CCN(CCCc3ccccc3)CC2)c1`, the TGI in experiment [1] is more than 100 µM; in experiment [2], more than 100 µM; in experiment [3], 89.9 µM; in [11], more than 100 µM; in [4], more than 100 µM; in experiment [5], more than 100 µM. For the same molecule, the TGI in experiment [6], in [7] and in [8] was more than 100 µM throughout.
For `CN1CC=C(c2c(N)nc(N)[nH]c2=O)CC1`, the TGI in experiment [1], in experiment [10], in [3], in experiment [11], in experiment [4] and in experiment [5] was more than 100 µM each time. Also, the TGI in [6], in [7], in experiment [8] and in experiment [9] was more than 100 µM in each case.
